These results are taken from PMC5430874 (Scientific Reports, 2017).

As a reminder, the Emax is the maximal effect, on the per cent scale that the assay sets. By EC50 is commonly meant the concentration that produces a half-maximal response.

In one experiment the target is T1, GPR139 F109L^3×33 (Homo sapiens, UniProt Q6DWJ6, F109L).
T1 construct: mGluR5 signal peptide (N); expressed in transfected cells; host or cells: HEK293
T1 sequence (Q6DWJ6 2-353 F109L limits assumed): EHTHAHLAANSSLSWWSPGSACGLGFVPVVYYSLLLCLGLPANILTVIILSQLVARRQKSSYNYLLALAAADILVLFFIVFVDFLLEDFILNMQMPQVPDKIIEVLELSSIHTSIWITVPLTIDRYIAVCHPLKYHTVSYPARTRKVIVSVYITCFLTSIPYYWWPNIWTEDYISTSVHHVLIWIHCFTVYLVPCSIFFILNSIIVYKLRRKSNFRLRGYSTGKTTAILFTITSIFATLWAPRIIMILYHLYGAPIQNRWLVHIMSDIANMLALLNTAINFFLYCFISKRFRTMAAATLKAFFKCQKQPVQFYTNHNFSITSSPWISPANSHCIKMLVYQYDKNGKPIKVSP
In words: Fluo-4 Ca2+-assay, GPR139 mutant F109L. The settings on record: for EC50: F109L mutant. The experiment is classed as cell-based. The text has this: (§1) To study the influence of specific amino acids in the predicted binding pocket on receptor function, the desired mutations were introduced into an N-terminally c-myc-tagged wild type human GPR139 (NM_001002911.3) in the pEGFP-N1 vector (BD Biosciences)[32], [33]. As previously described, these plasmids carry the signal peptide of mGluR5 to promote cell surface expression followed by a c-myc epitope to enable detection of total and surface expression by ELISA, followed by an engineered MluI and NotI site for easy insertion of the receptor of interest. Furthermore, the start-codon in the GPR139 sequence was deleted to ensure c-myc-tagging. Mutagenesis was designed in Serial Cloner 2.6 (© Franck Perez [SerialBasics]) and carried out by GenScript (USA). All mutated residues are illustrated in Supplementary Fig. 1b. An untagged GPR139(WT) in pEGFP-N1 was also generated to ensure that the c-myc-tag had no influence on GPR139(WT) function.
(§2) All GPR139 mutants were transfected into HEK293 cells. The HEK293 cells were grown in Dulbecco’s modified Eagle’s medium (DMEM) (Gibco, 41965) supplemented with 10% dialyzed fetal bovine serum (Gibco, 26400, United States origin), 100 units/mL penicillin and 100 μg/mL streptomycin (Gibco, 15140). HEK293 cells were reverse transfected using Lipofectamine2000 (Invitrogen). More specifically two mixtures were made: 1) 10 ng DNA/well + 25 μL Opti-MEM/well and 2) […] Lipofectamine2000/well + 25 μL Opti-MEM/well. The two mixtures were mixed and 50 μL/well was added directly in black 96-well plates with flat clear bottoms for the Fluo-4 Ca^2+-assay (Corning, Falcon, 353219) or in white Opaque 96-well Microplate (PerkinElmer Life, 6005680) for ELISA. 100 μL containing 20,000 cells were added to each well and incubated 48 hours before assays. All plates were coated with poly-D-lysine.
(§3) Compound 1a (1a) was kindly provided by H. Lundbeck A/S, Denmark. […] Both compounds were dissolved to 20 mM in DMSO (Sigma, D2650) and subsequently diluted in a HEPES buffer (HBSS (Gibco, 14025) supplemented with 20 mM HEPES + 1 mM MgCl2 + 1 mM CaCl2, pH = 7.4) to a final concentration of 0.5% DMSO in the Fluo-4 Ca^2+-assay. The DMSO level was kept constant for all concentrations of both compounds. DMSO was confirmed not to have any activity by itself at this concentration. L-Trp (T0254) and L -Phe (P2126) were obtained from Sigma-Aldrich and dissolved in buffer.
(§4) The Ca^2+ measurements were preformed using the Fluo-4 NW Calcium Assay Kit (Invitrogen, Molecular Probes, F36206) as previously described. Briefly, the Fluo-4 dye loading solution was prepared according to the manufacturer’s instructions by dissolving it in HEPES-buffer supplemented with 2.5 mM probenecid. 50 μL dye loading solution was added to each well. Cells were incubated with the Fluo-4 dye for 60 min at 37 °C, then washed with 100 μL HEPES-buffer. 100 μL HEPES-buffer supplemented with 2.5 mM probenecid was then added to each well and incubated in 10 minutes at 37 °C before measurement. […] Intracellular calcium changes were recorded as indicated on either a NOVOstar (BMG Labtech) at 37 °C with an excitation filter of 485 nm and an emission filters 520 nm or a FlexStation 3 Benchtop Multi-Mode Microplate Reader (Molecular Devices) at 37 °C with an excitation wavelength of 485 nm and emission of 525 nm.
(§5) All pharmacological data have been analyzed by using Prism 6.0 (GraphPad Software Inc., San Diego). Fitting of concentration response curves was performed by non-linear regression log(agonist) vs. response (four parameters). Pooled data are shown with standard error of the mean (S.E.M.) and data showing one representative are shown with standard deviation (S.D.). Changes in potency (pEC50) and span of myc-GPR139(WT) in comparison to untagged GPR139(WT) was statistically analyzed with a paired t-test and significance was accepted at p < 0.05. The ELISA data were normalized to surface expression of myc-GPR139(WT) (100%). […]

The target in another experiment is T2, GPR139 W241H^6×48 (Homo sapiens, UniProt Q6DWJ6, W241H).
T2 construct: mGluR5 signal peptide (N); expressed in transfected cells; host or cells: HEK293
T2 sequence (Q6DWJ6 2-353 W241H limits assumed): T1 sequence (Q6DWJ6 2-353 F109L limits assumed) with L108F, W240H
The experiment is described as follows: Fluo-4 Ca2+-assay, GPR139 mutant W241H. In kind it is cell-based. The arrangement: key to Emax ± SEM: NE: no effect (loss of activity). The settings on record: for EC50: W241H mutant.
Text: as §1, §2, §3, §4, §5

Another experiment deals with GPR139. Conditions: cited from earlier work; for activation of GPR139, concentration range: ref Isberg et al. and Liu et al.

Substitutions are numbered along the chain they refer to. Where two headings read alike, the source gives them in different places.

With `C[C@@H](NC(=O)CNC(=O)c1cccc(Cl)c1)c1ccccc1` (racemic) [Compound 7c], on GPR139 F109L^3×33, the maximum response (Emax) was 102 ± 3% and it took 3.98 µM to reach a half-maximal effect (EC50). Besides, at GPR139 F109L^3×33 (F109L mutant versus WT), the change of potency is given as ~ 100 fold. In addition, on GPR139 W241H^6×48, the Emax at 100 µM worked out at 12 ± 3% and the EC50 was more than 100 µM. Also, in the experiment with GPR139 (ref Dvorak et al.), the agonist potency result is listed as “ten-nanomolar range”.
For `COc1cc(OC)cc(C(=O)NNC(=O)Nc2cccc3ccccc23)c1` [Compound 1a], the 50% effective concentration (EC50) on GPR139 F109L^3×33 and on GPR139 W241H^6×48 was more than 7.94 µM throughout. The Emax at 8 µM on GPR139 F109L^3×33 (F109L, at 8 μM, normalized to buffer (0%) and 8 μM 1a (100%) on WT) was 42 ± 16%; on GPR139 W241H^6×48 (W241H, at 8 μM, normalized to buffer (0%) and 8 μM 1a (100%) on WT), 27 ± 10%. Moreover, the change of potency entry on GPR139 W241H^6×48 (W241H mutant versus WT) is listed as “markedly reduced potency”. The agonist potency result with GPR139 (ref Shi et al.) is “ten-nanomolar range”.
Consider `N[C@@H](Cc1ccccc1)C(=O)O` [L-Phe, phenylalanine], for which the concentration for a half-maximal effect (EC50) at GPR139 F109L^3×33 and at GPR139 W241H^6×48 was more than 31600 µM each time. Moreover, the maximal effect (Emax) at 30000 µM on GPR139 F109L^3×33 (F109L, at 30 mM, normalized to buffer (0%) and 30 mM Phe (100%) on WT) worked out at 72 ± 9%. Also, at GPR139 W241H^6×48 (W241H, at 30 mM, normalized to buffer (0%) and 30 mM Phe (100%) on WT), the “Emax ± SEM” value is “NE^##”. Also, the “activation of GPR139, concentration range” value in the experiment on GPR139 is on record as “hundred-micromolar range”.
For `N[C@@H](Cc1c[nH]c2ccccc12)C(=O)O` [L-Trp, tryptophan], the EC50 on GPR139 F109L^3×33 and at GPR139 W241H^6×48 was more than 10000 µM throughout. This compound displayed an Emax at 10000 µM at GPR139 F109L^3×33 (F109L, at 10 mM, normalized to buffer (0%) and 10 mM Trp (100%) on WT) of 60 ± 5%. Moreover, the “Emax ± SEM” value at GPR139 W241H^6×48 (W241H, at 10 mM, normalized to buffer (0%) and 10 mM Trp (100%) on WT) is reported as “NE^#”. For the same compound, the “activation of GPR139, concentration range” value in the experiment on GPR139 is given as “hundred-micromolar range”.
